# From ChEMBL document CHEMBL3393060, “Inhibitors of c-Jun N-terminal kinases: an update” (J Med Chem, 2015)
# Key:
# MAP kinase p38 = MAP kinase p38 (Homo sapiens, UniProt O15264+Q15759+Q16539+P53778); assay: Inhibition of p38 (unknown origin); assay type: protein assay
# [1] = biological target: Mitogen-activated protein kinase 10 (Rattus norvegicus, UniProt P49187); assay: Inhibition of JNK3-mediated c-jun phosphorylation in rat INS1 cells; assay type: cell-based
# [2] = biological target: T1, Mitogen-activated protein kinase 9 (Homo sapiens, UniProt P45984); assay: Inhibition of JNK2 (unknown origin) by time-resolved fluorescence assay
# Rattus norvegicus [3] = assay: Protective activity in rat model of myocardial ischemia-reperfusion injury assessed as reduction in infarct volume at 5 mg/kg; assay type: functional
# [4] = biological target: T2, Mitogen-activated protein kinase 8 (Homo sapiens, UniProt P45983); assay: Inhibition of JNK1 (unknown origin) by time-resolved fluorescence assay
# Cytochrome P450 1A2 = Cytochrome P450 1A2 (Homo sapiens, UniProt P05177); assay: Inhibition of CYP1A2 (unknown origin); assay type: ADME
# [5] = Neuroprotective effect against MPP+-induced cell death in primary cultures of mouse mesencephalic dopaminergic neurons […] single dose after 8 hrs; assay type: functional
# Rattus norvegicus [6] = species: Rattus norvegicus; assay: Neuroprotective effect against D-amphetamine-induced circling in rats assessed as reduction in behavioral deficits; assay type: functional
# Cytochrome P450 2E1 = Cytochrome P450 2E1 (Homo sapiens, UniProt P05181); assay: Inhibition of CYP2E1 (unknown origin); assay type: ADME
# Cytochrome P450 2D6 = Cytochrome P450 2D6 (Homo sapiens, UniProt P10635); assay: Inhibition of CYP2D6 (unknown origin); assay type: ADME
# Cytochrome P450 3A4 = Cytochrome P450 3A4 (Homo sapiens, UniProt P08684); assay: Inhibition of CYP3A4 (unknown origin); assay type: ADME
# Cytochrome P450 2C8 = Cytochrome P450 2C8 (Homo sapiens, UniProt P10632); assay: Inhibition of CYP2C8 (unknown origin); assay type: ADME
# [7] = biological target: Mast/stem cell growth factor receptor Kit (Homo sapiens, UniProt P10721); assay: Inhibition of KIT (unknown origin)
# [8] = biological target: Platelet-derived growth factor receptor beta (Homo sapiens, UniProt P09619); assay: Inhibition of PDGFRbeta (unknown origin)
# Cytochrome P450 2A6 = Cytochrome P450 2A6 (Homo sapiens, UniProt P11509); assay: Inhibition of CYP2A6 (unknown origin); assay type: ADME
# Cytochrome P450 2C9 = Cytochrome P450 2C9 (Homo sapiens, UniProt P11712); assay: Inhibition of CYP2C9 (unknown origin); assay type: ADME
# [9] = biological target: T3, Mitogen-activated protein kinase 10 (Homo sapiens, UniProt P53779); assay: Inhibition of JNK3 (unknown origin) by time-resolved fluorescence assay
# [10] = biological target: Mast/stem cell growth factor receptor Kit (Homo sapiens, UniProt P10721, V559D); assay: Inhibition of KIT V559D (unknown origin)
# Cytochrome P450 2C19 = Cytochrome P450 2C19 (Homo sapiens, UniProt P33261); assay: Inhibition of CYP2C19 (unknown origin); assay type: ADME
# Cytochrome P450 2B6 = Cytochrome P450 2B6 (Homo sapiens, UniProt P20813); assay: Inhibition of CYP2B6 (unknown origin); assay type: ADME
# [11] = biological target: Non-receptor tyrosine-protein kinase TYK2 (Homo sapiens, UniProt P29597); assay: Inhibition of TYK2 (unknown origin)
# Rattus norvegicus [12] = species: Rattus norvegicus; assay: Ratio of drug level brain to plasma in rat; assay type: ADME, organism-based
# [13] = Oral bioavailability in rat; assay type: ADME, organism-based; details: in vivo
# [14] = Half life in rat at 1 mg/kg, iv and 2 mg/kg, po; assay type: ADME, organism-based; details: in vivo
# [15] = Oral bioavailability in rat at 2 mg/kg; assay type: ADME, organism-based; details: in vivo
# [16] = Clearance in rat at 1 mg/kg, iv and 2 mg/kg, po; assay type: ADME, organism-based; details: in vivo
# [17] = biological target: Casein kinase I isoform delta (Homo sapiens, UniProt P48730); assay: Inhibition of CK1delta (unknown origin) by KINOMEScan assay
# [18] = biological target: Phosphatidylinositol 4,5-bisphosphate 3-kinase catalytic subunit gamma isoform (Homo sapiens, UniProt P48736); assay: Inhibition of PI3Kgamma (unknown origin) by KINOMEScan assay
# [19] = biological target: MAP kinase-interacting serine/threonine-protein kinase 2 (Homo sapiens, UniProt Q9HBH9); assay: Inhibition of MKNK2 (unknown origin) by KINOMEScan assay
# [20] = biological target: T2, Mitogen-activated protein kinase 8; assay: Inhibition of JNK1 (unknown origin)
# [21] = biological target: T1, Mitogen-activated protein kinase 9; assay: Inhibition of JNK2 (unknown origin)
# [22] = biological target: Leucine-rich repeat serine/threonine-protein kinase 2 (Homo sapiens, UniProt Q5S007, G2019S); assay: Inhibition of LRRK2 G2019S mutant (unknown origin)
# [23] = biological target: T2, Mitogen-activated protein kinase 8; assay: Inhibition of JNK1 (unknown origin) by JIP-FP displacement assay
# [24] = biological target: T3, Mitogen-activated protein kinase 10; assay: Inhibition of JNK3 (unknown origin) by JIP-FP displacement assay
# [25] = biological target: T1, Mitogen-activated protein kinase 9; assay: Inhibition of JNK2 (unknown origin) by JIP-FP displacement assay
# [26] = biological target: T3, Mitogen-activated protein kinase 10; assay: Inhibition of JNK3-mediated c-jun phosphorylation in human A375 cells after 1 hr incubation; assay type: cell-based, A-375
# [27] = biological target: T2, Mitogen-activated protein kinase 8; assay: Inhibition of JNK1 (unknown origin) after 1 hr incubation
# [28] = biological target: T3, Mitogen-activated protein kinase 10; assay: Inhibition of JNK3-mediated c-jun phosphorylation in human HeLa cells after 1 hr incubation; assay type: cell-based
# Chain of Mitogen-activated protein kinase 10 (Rattus norvegicus, UniProt P49187) (P49187 whole entry): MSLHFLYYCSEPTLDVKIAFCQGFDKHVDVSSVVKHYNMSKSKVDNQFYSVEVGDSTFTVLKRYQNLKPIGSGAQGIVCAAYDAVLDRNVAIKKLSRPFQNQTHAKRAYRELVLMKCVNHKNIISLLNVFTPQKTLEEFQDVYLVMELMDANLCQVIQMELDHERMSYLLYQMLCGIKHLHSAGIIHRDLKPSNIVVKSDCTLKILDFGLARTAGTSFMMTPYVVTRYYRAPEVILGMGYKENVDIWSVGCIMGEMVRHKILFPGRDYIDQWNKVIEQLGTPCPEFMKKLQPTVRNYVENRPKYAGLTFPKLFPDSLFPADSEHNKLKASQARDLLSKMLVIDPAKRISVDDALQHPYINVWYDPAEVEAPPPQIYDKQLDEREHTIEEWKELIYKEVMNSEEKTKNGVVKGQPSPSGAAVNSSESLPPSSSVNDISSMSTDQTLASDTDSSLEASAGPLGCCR
# Chain of Mast/stem cell growth factor receptor Kit (Homo sapiens, UniProt P10721) (P10721 whole entry): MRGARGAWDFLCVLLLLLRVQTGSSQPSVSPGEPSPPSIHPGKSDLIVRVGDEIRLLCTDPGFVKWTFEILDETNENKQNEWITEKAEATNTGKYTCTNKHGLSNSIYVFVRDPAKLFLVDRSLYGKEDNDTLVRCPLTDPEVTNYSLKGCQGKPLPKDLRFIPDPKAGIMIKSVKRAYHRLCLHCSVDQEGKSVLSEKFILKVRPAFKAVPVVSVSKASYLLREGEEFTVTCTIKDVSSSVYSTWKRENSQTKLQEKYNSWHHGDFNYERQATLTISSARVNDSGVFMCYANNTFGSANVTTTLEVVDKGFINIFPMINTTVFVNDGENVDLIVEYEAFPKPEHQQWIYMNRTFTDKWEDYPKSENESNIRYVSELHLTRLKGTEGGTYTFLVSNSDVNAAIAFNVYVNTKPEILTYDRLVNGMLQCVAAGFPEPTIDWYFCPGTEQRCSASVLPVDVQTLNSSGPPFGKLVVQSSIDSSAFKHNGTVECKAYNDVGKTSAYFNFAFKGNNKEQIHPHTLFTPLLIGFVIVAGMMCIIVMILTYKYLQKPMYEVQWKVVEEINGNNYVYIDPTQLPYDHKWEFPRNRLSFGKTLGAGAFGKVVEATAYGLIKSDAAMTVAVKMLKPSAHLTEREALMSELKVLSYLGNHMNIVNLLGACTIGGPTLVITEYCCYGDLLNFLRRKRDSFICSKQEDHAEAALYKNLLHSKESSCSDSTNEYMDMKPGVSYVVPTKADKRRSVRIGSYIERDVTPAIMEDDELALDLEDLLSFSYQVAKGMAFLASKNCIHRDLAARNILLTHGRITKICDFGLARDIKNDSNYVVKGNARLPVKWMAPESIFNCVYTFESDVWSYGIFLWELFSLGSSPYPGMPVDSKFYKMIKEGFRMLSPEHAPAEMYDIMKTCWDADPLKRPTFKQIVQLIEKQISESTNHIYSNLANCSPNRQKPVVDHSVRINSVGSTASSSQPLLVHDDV
# Chain of MAP kinase-interacting serine/threonine-protein kinase 2 (Q9HBH9 whole entry): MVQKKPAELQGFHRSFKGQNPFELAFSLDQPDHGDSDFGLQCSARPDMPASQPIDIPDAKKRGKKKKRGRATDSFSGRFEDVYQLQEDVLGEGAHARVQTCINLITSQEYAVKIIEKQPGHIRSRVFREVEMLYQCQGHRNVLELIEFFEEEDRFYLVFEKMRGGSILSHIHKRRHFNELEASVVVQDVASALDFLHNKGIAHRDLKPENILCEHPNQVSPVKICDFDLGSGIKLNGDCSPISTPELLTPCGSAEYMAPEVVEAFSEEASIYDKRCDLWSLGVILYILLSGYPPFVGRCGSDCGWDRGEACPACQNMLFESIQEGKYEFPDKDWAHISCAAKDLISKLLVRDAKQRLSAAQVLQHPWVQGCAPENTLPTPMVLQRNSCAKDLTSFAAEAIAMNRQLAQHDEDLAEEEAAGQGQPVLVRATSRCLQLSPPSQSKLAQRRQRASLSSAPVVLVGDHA
# T3 sequence (P53779 whole entry): as the sequence (P49187 whole entry) above, with H27Q, S32Y, V33I, V34A counted along it
# T2 sequence (P45983 whole entry): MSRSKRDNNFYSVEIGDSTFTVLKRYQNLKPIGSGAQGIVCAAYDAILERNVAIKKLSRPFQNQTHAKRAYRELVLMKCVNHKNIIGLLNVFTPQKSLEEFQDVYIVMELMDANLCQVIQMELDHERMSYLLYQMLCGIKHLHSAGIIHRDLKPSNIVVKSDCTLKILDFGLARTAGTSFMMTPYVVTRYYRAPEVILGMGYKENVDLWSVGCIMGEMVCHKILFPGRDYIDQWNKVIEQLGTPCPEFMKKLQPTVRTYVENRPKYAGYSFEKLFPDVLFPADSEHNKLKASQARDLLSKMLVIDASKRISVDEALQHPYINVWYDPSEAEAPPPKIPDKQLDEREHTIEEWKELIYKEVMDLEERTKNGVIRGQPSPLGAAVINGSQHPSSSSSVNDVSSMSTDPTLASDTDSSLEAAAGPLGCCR
# Chain of Casein kinase I isoform delta (P48730 whole entry, canonical isoform): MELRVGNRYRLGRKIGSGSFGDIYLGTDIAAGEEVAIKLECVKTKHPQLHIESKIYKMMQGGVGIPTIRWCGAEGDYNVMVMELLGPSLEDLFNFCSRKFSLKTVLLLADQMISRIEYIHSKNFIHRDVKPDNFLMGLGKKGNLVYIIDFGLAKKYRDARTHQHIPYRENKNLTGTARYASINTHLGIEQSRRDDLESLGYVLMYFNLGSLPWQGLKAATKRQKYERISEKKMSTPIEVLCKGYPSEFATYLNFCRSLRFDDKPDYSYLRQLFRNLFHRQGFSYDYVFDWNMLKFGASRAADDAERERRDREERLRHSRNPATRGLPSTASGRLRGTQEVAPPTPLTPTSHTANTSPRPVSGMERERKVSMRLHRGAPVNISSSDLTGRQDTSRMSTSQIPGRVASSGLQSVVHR
# Chain of Phosphatidylinositol 4,5-bisphosphate 3-kinase catalytic subunit gamma isoform (P48736 whole entry, canonical isoform): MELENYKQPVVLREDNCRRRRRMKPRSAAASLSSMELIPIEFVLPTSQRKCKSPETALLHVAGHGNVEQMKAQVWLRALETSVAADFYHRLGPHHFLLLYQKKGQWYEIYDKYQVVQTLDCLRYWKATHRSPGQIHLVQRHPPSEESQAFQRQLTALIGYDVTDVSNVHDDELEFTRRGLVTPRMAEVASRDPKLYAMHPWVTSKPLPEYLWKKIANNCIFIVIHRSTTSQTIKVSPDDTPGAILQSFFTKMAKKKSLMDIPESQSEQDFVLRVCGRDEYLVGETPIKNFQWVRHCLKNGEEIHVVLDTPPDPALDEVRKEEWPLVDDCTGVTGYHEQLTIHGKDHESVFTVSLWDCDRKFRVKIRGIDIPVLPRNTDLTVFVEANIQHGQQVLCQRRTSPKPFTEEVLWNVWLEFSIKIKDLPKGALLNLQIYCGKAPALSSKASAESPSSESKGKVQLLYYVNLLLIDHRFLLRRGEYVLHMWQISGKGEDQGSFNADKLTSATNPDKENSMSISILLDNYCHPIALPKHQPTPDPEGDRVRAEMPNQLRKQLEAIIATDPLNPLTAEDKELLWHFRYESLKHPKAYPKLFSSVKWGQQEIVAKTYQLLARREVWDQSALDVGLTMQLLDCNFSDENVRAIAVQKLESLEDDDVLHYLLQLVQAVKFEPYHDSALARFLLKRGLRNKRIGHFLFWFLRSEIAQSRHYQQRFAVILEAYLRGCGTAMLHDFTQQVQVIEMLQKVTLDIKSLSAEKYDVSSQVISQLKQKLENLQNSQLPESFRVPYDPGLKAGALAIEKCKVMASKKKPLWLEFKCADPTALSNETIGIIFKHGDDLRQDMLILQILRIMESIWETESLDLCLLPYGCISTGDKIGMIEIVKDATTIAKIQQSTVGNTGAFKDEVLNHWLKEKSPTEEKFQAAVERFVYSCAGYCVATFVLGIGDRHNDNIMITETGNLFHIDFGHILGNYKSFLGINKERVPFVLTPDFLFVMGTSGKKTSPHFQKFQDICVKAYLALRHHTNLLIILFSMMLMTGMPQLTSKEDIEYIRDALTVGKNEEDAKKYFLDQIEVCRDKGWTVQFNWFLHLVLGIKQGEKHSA
# T1 sequence (P45984 whole entry, the tested form may be a part): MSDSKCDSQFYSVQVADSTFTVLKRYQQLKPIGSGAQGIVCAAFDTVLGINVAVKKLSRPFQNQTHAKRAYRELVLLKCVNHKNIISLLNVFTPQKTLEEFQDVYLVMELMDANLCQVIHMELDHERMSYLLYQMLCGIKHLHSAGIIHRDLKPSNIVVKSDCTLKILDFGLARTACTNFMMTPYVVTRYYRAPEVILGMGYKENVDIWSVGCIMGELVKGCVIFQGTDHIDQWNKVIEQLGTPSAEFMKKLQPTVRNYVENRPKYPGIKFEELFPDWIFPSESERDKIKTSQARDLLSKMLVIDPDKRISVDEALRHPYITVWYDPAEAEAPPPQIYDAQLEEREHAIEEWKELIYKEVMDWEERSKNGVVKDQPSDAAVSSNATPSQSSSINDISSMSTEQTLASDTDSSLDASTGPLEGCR
# Chain of Cytochrome P450 2C9 (P11712 whole entry): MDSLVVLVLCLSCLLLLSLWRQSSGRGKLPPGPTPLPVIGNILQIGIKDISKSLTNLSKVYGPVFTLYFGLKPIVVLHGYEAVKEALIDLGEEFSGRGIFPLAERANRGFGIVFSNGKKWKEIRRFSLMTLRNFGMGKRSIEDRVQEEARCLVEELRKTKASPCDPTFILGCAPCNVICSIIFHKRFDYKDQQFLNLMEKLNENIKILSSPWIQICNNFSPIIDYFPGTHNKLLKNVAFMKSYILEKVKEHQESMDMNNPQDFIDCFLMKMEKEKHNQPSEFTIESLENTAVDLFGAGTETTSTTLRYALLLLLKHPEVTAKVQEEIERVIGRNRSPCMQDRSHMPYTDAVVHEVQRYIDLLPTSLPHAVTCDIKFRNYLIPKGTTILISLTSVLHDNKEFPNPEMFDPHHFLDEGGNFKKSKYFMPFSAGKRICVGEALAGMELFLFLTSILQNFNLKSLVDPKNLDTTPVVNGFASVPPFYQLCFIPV
smiles,measurement,setting,value
COc1cc(NC(=O)c2cccc(-n3cc(NC(=O)Nc4ccccc4)cn3)c2)cc(OC)c1OC,IC50,MAP kinase p38,3700 nM
same,IC50,[1],1200 nM
Cn1cc(-c2ccc3cnc(Nc4ccc(-n5cnc(N6CCOCC6)n5)cc4)nc3c2)cn1,IC50,[2],90 nM
same,IC50,[1],310 nM
Cc1ccc(-c2ncn(-c3ccc(Nc4nccc(-c5cccc(N6CCOCC6)c5)n4)cc3)n2)cn1,inhibition in vivo at 5 mg/kg,Rattus norvegicus [3],34%
same,IC50,[4],67 nM
same,IC50,[2],283 nM
same,IC50,MAP kinase p38,> 20000 nM
same,IC50,Cytochrome P450 1A2,> 50000 nM
same,Activity,[5],>90%
same,inhibition (INH),Rattus norvegicus [6],90%
same,IC50,Cytochrome P450 2E1,> 50000 nM
same,IC50,Cytochrome P450 2D6,> 50000 nM
same,IC50,Cytochrome P450 3A4,> 50000 nM
same,IC50,Cytochrome P450 2C8,> 50000 nM
same,Kd,[7],> 20000 nM
same,Kd,[8],< 1000 nM
same,IC50,[1],216 nM
same,IC50,Cytochrome P450 2A6,> 50000 nM
same,IC50,Cytochrome P450 2C9,> 50000 nM
same,IC50,[9],159 nM
same,Kd,[10],< 1000 nM
same,IC50,Cytochrome P450 2C19,> 50000 nM
same,IC50,Cytochrome P450 2B6,> 50000 nM
same,Kd,[11],< 1000 nM
O=C(NCCN1CCOCC1)c1ccnc(-n2ncc3cc(Nc4ccccc4Cl)ccc32)c1,Kd,[7],< 1000 nM
NC(=O)c1ccccc1Nc1nc(Nc2ccc(N3CCOCC3)cc2)ncc1Cl,IC50,[4],1 nM
same,IC50,[9],0.3 nM
COc1cc(N2CCOCC2)ccc1Nc1ncc(Cl)c(Nc2ccccc2C(N)=O)n1,IC50,[4],3 nM
same,IC50,[1],3 nM
same,IC50,[9],0.8 nM
same,BPR,Rattus norvegicus [12],17%
same,bioavailability,[13],30%
NC(=O)c1ccccc1Nc1nc(Nc2ccc(N3CCCC3=O)cc2)ncc1Cl,IC50,[4],0.24 nM
CN(C)c1ccc(-c2cnc3[nH]cc(-c4cn[nH]c4)c3c2)cc1,IC50,[4],101 nM
same,IC50,[2],59 nM
same,IC50,[9],32 nM
Cn1cc(-c2c[nH]c3ncc([C@H]4CC[C@H](N5CCOCC5)CC4)cc23)cn1,IC50,[4],74 nM
same,IC50,[2],123 nM
same,IC50,[9],85 nM
Cn1cc(-c2c[nH]c3ncc([C@H]4CC[C@H](N5CCCOCC5)CC4)cc23)cn1,IC50,[4],166 nM
same,IC50,[2],339 nM
O=C(NCCN1CCN(C2CCC2)CC1)c1cccc(-n2ncc3cc(Nc4ccccc4Cl)ccc32)c1,IC50,[4],970 nM
same,half-life,[14],3.3 min
same,bioavailability,[15],27%
same,clearance,[16],25 mL/min/kg
same,IC50,[9],40 nM
COc1cc(NC(=O)c2cccc(-n3cc(NC(=O)Nc4cccc(C)c4)cn3)c2)cc(OC)c1OC,IC50,[4],17 nM
same,IC50,MAP kinase p38,> 20000 nM
same,Kd,[7],> 20000 nM
same,IC50,[1],1300 nM
COc1ccc(CC(=O)Nc2cc3cc(-c4cnn(C)c4)ccc3cn2)cc1,IC50,[4],0.8 nM
O/N=C1/c2ccccc2-c2nc3ccccc3nc21,Kd,[17],380 nM
same,Kd,[18],470 nM
same,Kd,[19],920 nM
O=C(O/N=C1/c2ccccc2-c2nc3ccccc3nc21)c1ccco1,Kd,[17],560 nM
same,Kd,[20],240 nM
same,Kd,[21],290 nM
same,Kd,[18],430 nM
same,Kd,[19],1200 nM
COc1ccc(C(=O)O/N=C2/c3ccccc3-c3nc4ccccc4nc32)cc1OC,Kd,[17],5700 nM
same,Kd,[20],270 nM
same,Kd,[21],280 nM
same,Kd,[18],12000 nM
same,Kd,[19],10000 nM
COc1ccc2c(c1)OCC(C(=O)NC(=O)N(CC(=O)NCCCCCCNC(=O)c1ccc(-c3n[nH]c4ccccc34)cc1)CC(C)C)O2 (stereo not given),IC50,[22],99 nM
same,IC50,[1],2800 nM
same,IC50,[23],109 nM
same,IC50,[24],12 nM
same,IC50,[25],336 nM
CN(C)C/C=C/C(=O)Nc1ccc(C(=O)Nc2cccc(Nc3nccc(-c4cccnc4)n3)c2)cc1,IC50,[26],2400 nM
CN(C)C/C=C/C(=O)Nc1cccc(C(=O)Nc2ccc(Nc3nccc(-c4cccnc4)n3)cc2)c1,IC50,[27],1.5 nM
CN(C)C/C=C/C(=O)Nc1cccc(C(=O)Nc2ccc(Nc3nccc(-c4c(-c5ccccc5)nn5ccccc45)n3)cc2)c1,IC50,[26],9 nM
same,IC50,[27],1.3 nM
same,IC50,[28],48 nM
CS(=O)(=O)Nc1ccc(-c2ccnc(Nc3ccc(-n4ccnn4)cc3)n2)cc1,IC50,MAP kinase p38,> 20000 nM
same,IC50,[1],210 nM
Fc1cc(-c2cc[nH]/c(=N/c3ccc(-n4cnc(N5CCOCC5)n4)cc3)n2)cc(N2CCOCC2)c1,IC50,[2],99 nM
same,IC50,MAP kinase p38,> 20000 nM
same,IC50,[1],54 nM
